Reference: ChEMBL document CHEMBL2203245 (Bioorg Med Chem Lett, 2012)

molecular target: T1, Delta-type opioid receptor (Homo sapiens, UniProt P41143); experiment: Antagonist activity at human delta opioid receptor expressed in CHO cells assessed as inhibition of SNC80-induced [35S]GTPgammaS binding after 60 mins by scintillation counting; assay type: functional, cell-based; settings: cho
T1 sequence (P41143 whole entry): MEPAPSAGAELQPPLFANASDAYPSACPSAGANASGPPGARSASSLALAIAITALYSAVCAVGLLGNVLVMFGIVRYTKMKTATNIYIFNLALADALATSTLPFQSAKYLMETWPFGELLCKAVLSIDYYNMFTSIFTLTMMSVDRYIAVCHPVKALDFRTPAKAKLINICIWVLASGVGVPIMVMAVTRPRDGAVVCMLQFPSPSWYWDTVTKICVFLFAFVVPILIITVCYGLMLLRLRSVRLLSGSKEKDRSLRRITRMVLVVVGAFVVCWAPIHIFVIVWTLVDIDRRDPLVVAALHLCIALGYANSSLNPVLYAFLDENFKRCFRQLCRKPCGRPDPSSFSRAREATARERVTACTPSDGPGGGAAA

With `COc1ccc2cc(CCNC(=O)c3ccc4c(c3)C3(C)CCN(CC5CC5)C(C4)C3C)ccc2c1` (racemic) as the compound, how does the IC50 read?
Its IC50 is “Not Active”.

With `C[C@H]1[C@H]2Cc3ccc(C(=O)NCCc4ccc(-c5ccc(O)cc5)cc4)cc3[C@]1(C)CCN2CC1CC1` as the compound, how does the IC50 read?
The IC50 was “Not Active”.

`COc1cccc(-c2ccc(CCNC(=O)c3ccc4c(c3)C3(C)CCN(CC5CC5)C(C4)C3C)cc2)c1` (racemic) was tested. Which IC50 did it give?
Its IC50 is “Not Active”.

Which IC50 does the source give for `CC1C2Cc3ccc(C(=O)NCCc4ccc(-c5ccc6c(c5)OCO6)cc4)cc3C1(C)CCN2CC1CC1` (racemic) here?
Its IC50 is “Not Active”.

For `CC(C)Oc1ccc(-c2ccc(CCNC(=O)c3ccc4c(c3)C3(C)CCN(CC5CC5)C(C4)C3C)cc2)cc1` (racemic), which IC50 is on record?
The IC50 was “Not Active”.

For `COc1ccc(-c2ccc(CCNC(=O)c3ccc4c(c3)C3(C)CCN(CC5CC5)C(C4)C3C)cc2)cc1C` (racemic), which IC50 is on record?
Its IC50 is “Not Active”.

`CC1C2Cc3ccc(C(=O)NCCc4ccc(-c5ccccc5O)cc4)cc3C1(C)CCN2CC1CC1` (racemic) was tested. Which IC50 did it give?
The IC50 was “Not Active”.

molecular target: T2, Mu-type opioid receptor (Homo sapiens, UniProt P35372); experiment: Antagonist activity at human mu opioid receptor expressed in CHO cells assessed as inhibition of DAMGO-induced [35S]GTPgammaS binding after 60 mins by scintillation counting; assay type: functional, cell-based; settings: not given
T2 sequence (P35372 whole entry): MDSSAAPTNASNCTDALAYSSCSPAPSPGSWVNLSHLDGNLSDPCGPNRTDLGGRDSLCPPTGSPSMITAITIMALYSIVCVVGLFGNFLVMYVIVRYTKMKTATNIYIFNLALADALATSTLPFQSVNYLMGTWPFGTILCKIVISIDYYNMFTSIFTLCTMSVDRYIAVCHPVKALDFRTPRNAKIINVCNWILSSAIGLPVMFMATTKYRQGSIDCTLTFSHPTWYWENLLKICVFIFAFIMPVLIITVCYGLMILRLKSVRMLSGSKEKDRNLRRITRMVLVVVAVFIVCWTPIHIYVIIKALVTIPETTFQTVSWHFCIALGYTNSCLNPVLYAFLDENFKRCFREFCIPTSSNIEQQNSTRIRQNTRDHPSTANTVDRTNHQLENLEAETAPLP

For `COc1ccc2cc(CCNC(=O)c3ccc4c(c3)C3(C)CCN(CC5CC5)C(C4)C3C)ccc2c1` (racemic), which IC50 is on record?
The IC50 was 45 nM.

How did the IC50 turn out when `CC(C)Oc1ccc(-c2ccc(CCNC(=O)c3ccc4c(c3)C3(C)CCN(CC5CC5)C(C4)C3C)cc2)cc1` (racemic) was run?
Its IC50 is 13 nM.

Which IC50 does the source give for `CC1C2Cc3ccc(C(=O)NCCc4ccc(-c5ccccc5O)cc4)cc3C1(C)CCN2CC1CC1` (racemic) here?
Its IC50 is 64 nM.

molecular target: T2, Mu-type opioid receptor; experiment: Partial agonist activity at human mu opioid receptor expressed in CHO cells assessed as [35S]GTPgammaS binding after 60 mins by scintillation counting relative to untreated-control; assay type: functional, cell-based; settings: not given

How did the Emax turn out when `C[C@H]1[C@H]2Cc3ccc(C(=O)NCCc4ccc(-c5ccc(O)cc5)cc4)cc3[C@]1(C)CCN2CC1CC1` was run?
Its Emax is 31%.

Which Emax does the source give for `CC(C)Oc1ccc(-c2ccc(CCNC(=O)c3ccc4c(c3)C3(C)CCN(CC5CC5)C(C4)C3C)cc2)cc1` (racemic) here?
The Emax was 35%.

With `COc1ccc(-c2ccc(CCNC(=O)c3ccc4c(c3)C3(C)CCN(CC5CC5)C(C4)C3C)cc2)cc1C` (racemic) as the compound, how does the Emax read?
The Emax was 21%.

For `CC1C2Cc3ccc(C(=O)NCCc4ccc(-c5ccccc5O)cc4)cc3C1(C)CCN2CC1CC1` (racemic), which Emax is on record?
The Emax was 48%.

molecular target: T3, Kappa-type opioid receptor (Homo sapiens, UniProt P41145); experiment: Displacement of [3H]U69,593 from human kappa opioid receptor expressed in CHO cells after 60 mins by scintillation counting; assay type: cell-based; settings: not given
T3 sequence (P41145 whole entry): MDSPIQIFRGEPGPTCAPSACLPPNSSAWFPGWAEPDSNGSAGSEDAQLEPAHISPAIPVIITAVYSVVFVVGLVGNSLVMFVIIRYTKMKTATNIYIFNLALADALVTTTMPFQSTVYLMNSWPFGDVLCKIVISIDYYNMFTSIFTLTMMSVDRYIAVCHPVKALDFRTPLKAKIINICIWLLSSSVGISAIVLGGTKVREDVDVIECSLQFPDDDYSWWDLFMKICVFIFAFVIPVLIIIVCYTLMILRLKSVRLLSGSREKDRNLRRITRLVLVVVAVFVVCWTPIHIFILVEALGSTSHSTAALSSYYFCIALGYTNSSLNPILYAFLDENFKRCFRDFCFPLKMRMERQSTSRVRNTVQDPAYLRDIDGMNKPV

How did the Ki turn out when `COc1ccc2cc(CCNC(=O)c3ccc4c(c3)C3(C)CCN(CC5CC5)C(C4)C3C)ccc2c1` (racemic) was run?
Its Ki is 0.45 nM.

With `C[C@H]1[C@H]2Cc3ccc(C(=O)NCCc4ccc(-c5ccc(O)cc5)cc4)cc3[C@]1(C)CCN2CC1CC1` as the compound, how does the Ki read?
Its Ki is 0.36 nM.

With `COc1cccc(-c2ccc(CCNC(=O)c3ccc4c(c3)C3(C)CCN(CC5CC5)C(C4)C3C)cc2)c1` (racemic) as the compound, how does the Ki read?
Its Ki is 0.22 nM.

For `CC1C2Cc3ccc(C(=O)NCCc4ccc(-c5ccccc5O)cc4)cc3C1(C)CCN2CC1CC1` (racemic), which Ki is on record?
Its Ki is 2.1 nM.

molecular target: T3, Kappa-type opioid receptor; experiment: Antagonist activity at human kappa opioid receptor expressed in CHO cells assessed as inhibition of U50,488-induced [35S]GTPgammaS binding after 60 mins by scintillation counting; assay type: functional, cell-based; settings: not given

`COc1ccc2cc(CCNC(=O)c3ccc4c(c3)C3(C)CCN(CC5CC5)C(C4)C3C)ccc2c1` (racemic) was tested. Which IC50 did it give?
Its IC50 is “Not Active”.

How did the IC50 turn out when `C[C@H]1[C@H]2Cc3ccc(C(=O)NCCc4ccc(-c5ccc(O)cc5)cc4)cc3[C@]1(C)CCN2CC1CC1` was run?
The IC50 was “Not Active”.

Which IC50 does the source give for `COc1cccc(-c2ccc(CCNC(=O)c3ccc4c(c3)C3(C)CCN(CC5CC5)C(C4)C3C)cc2)c1` (racemic) here?
Its IC50 is “Not Active”.

For `CC1C2Cc3ccc(C(=O)NCCc4ccc(-c5ccc6c(c5)OCO6)cc4)cc3C1(C)CCN2CC1CC1` (racemic), which IC50 is on record?
Its IC50 is “Not Active”.

For `CC(C)Oc1ccc(-c2ccc(CCNC(=O)c3ccc4c(c3)C3(C)CCN(CC5CC5)C(C4)C3C)cc2)cc1` (racemic), which IC50 is on record?
Its IC50 is “Not Active”.

With `COc1ccc(-c2ccc(CCNC(=O)c3ccc4c(c3)C3(C)CCN(CC5CC5)C(C4)C3C)cc2)cc1C` (racemic) as the compound, how does the IC50 read?
The IC50 was “Not Active”.

With `CC1C2Cc3ccc(C(=O)NCCc4ccc(-c5ccccc5O)cc4)cc3C1(C)CCN2CC1CC1` (racemic) as the compound, how does the IC50 read?
Its IC50 is “Not Active”.

molecular target: T2, Mu-type opioid receptor; experiment: Partial agonist activity at human mu opioid receptor expressed in CHO cells assessed as [35S]GTPgammaS binding after 60 mins by scintillation counting; assay type: functional, cell-based; settings: not given

With `CC(C)Oc1ccc(-c2ccc(CCNC(=O)c3ccc4c(c3)C3(C)CCN(CC5CC5)C(C4)C3C)cc2)cc1` (racemic) as the compound, how does the EC50 read?
The EC50 was 2.3 nM.

`CC1C2Cc3ccc(C(=O)NCCc4ccc(-c5ccccc5O)cc4)cc3C1(C)CCN2CC1CC1` (racemic) was tested. Which EC50 did it give?
Its EC50 is 1.5 nM.

molecular target: T1, Delta-type opioid receptor; experiment: Displacement of [3H]Naltrindole from human delta opioid receptor expressed in CHO cells after 3 hrs by scintillation counting; assay type: cell-based; settings: not given

`COc1ccc2cc(CCNC(=O)c3ccc4c(c3)C3(C)CCN(CC5CC5)C(C4)C3C)ccc2c1` (racemic) was tested. Which Ki did it give?
Its Ki is 2.2 nM.

For `C[C@H]1[C@H]2Cc3ccc(C(=O)NCCc4ccc(-c5ccc(O)cc5)cc4)cc3[C@]1(C)CCN2CC1CC1`, which Ki is on record?
Its Ki is 0.78 nM.

`COc1cccc(-c2ccc(CCNC(=O)c3ccc4c(c3)C3(C)CCN(CC5CC5)C(C4)C3C)cc2)c1` (racemic) was tested. Which Ki did it give?
Its Ki is 1.3 nM.

Which Ki does the source give for `CC1C2Cc3ccc(C(=O)NCCc4ccc(-c5ccccc5O)cc4)cc3C1(C)CCN2CC1CC1` (racemic) here?
Its Ki is 0.24 nM.

molecular target: T2, Mu-type opioid receptor; experiment: Antagonist activity at human mu opioid receptor expressed in CHO cells assessed as inhibition of DAMGO-induced [35S]GTPgammaS binding after 60 mins by scintillation counting relative to untreated-control; assay type: functional, cell-based; settings: not given

`COc1ccc2cc(CCNC(=O)c3ccc4c(c3)C3(C)CCN(CC5CC5)C(C4)C3C)ccc2c1` (racemic) was tested. Which Imax did it give?
The Imax was 76%.

For `C[C@H]1[C@H]2Cc3ccc(C(=O)NCCc4ccc(-c5ccc(O)cc5)cc4)cc3[C@]1(C)CCN2CC1CC1`, which Imax is on record?
Its Imax is 62%.

For `CC(C)Oc1ccc(-c2ccc(CCNC(=O)c3ccc4c(c3)C3(C)CCN(CC5CC5)C(C4)C3C)cc2)cc1` (racemic), which Imax is on record?
Its Imax is 72%.

How did the Imax turn out when `COc1ccc(-c2ccc(CCNC(=O)c3ccc4c(c3)C3(C)CCN(CC5CC5)C(C4)C3C)cc2)cc1C` (racemic) was run?
Its Imax is 81%.

With `CC1C2Cc3ccc(C(=O)NCCc4ccc(-c5ccccc5O)cc4)cc3C1(C)CCN2CC1CC1` (racemic) as the compound, how does the Imax read?
The Imax was 67%.

molecular target: T2, Mu-type opioid receptor; experiment: Agonist activity at human mu opioid receptor expressed in CHO cells assessed as [35S]GTPgammaS binding after 60 mins by scintillation counting relative to untreated-control; assay type: functional, cell-based; settings: not given

`COc1ccc2cc(CCNC(=O)c3ccc4c(c3)C3(C)CCN(CC5CC5)C(C4)C3C)ccc2c1` (racemic) was tested. Which Emax did it give?
Its Emax is 6.6%.

molecular target: T3, Kappa-type opioid receptor; experiment: Agonist activity at human kappa opioid receptor expressed in CHO cells assessed as [35S]GTPgammaS binding after 60 mins by scintillation counting; assay type: functional, cell-based; settings: not given

Which EC50 does the source give for `COc1ccc2cc(CCNC(=O)c3ccc4c(c3)C3(C)CCN(CC5CC5)C(C4)C3C)ccc2c1` (racemic) here?
Its EC50 is 1.3 nM.

For `C[C@H]1[C@H]2Cc3ccc(C(=O)NCCc4ccc(-c5ccc(O)cc5)cc4)cc3[C@]1(C)CCN2CC1CC1`, which EC50 is on record?
Its EC50 is 0.26 nM.

`COc1cccc(-c2ccc(CCNC(=O)c3ccc4c(c3)C3(C)CCN(CC5CC5)C(C4)C3C)cc2)c1` (racemic) was tested. Which EC50 did it give?
Its EC50 is 3.1 nM.

Which EC50 does the source give for `CC1C2Cc3ccc(C(=O)NCCc4ccc(-c5ccc6c(c5)OCO6)cc4)cc3C1(C)CCN2CC1CC1` (racemic) here?
Its EC50 is 0.34 nM.

`CC1C2Cc3ccc(C(=O)NCCc4ccc(-c5ccccc5O)cc4)cc3C1(C)CCN2CC1CC1` (racemic) was tested. Which EC50 did it give?
Its EC50 is 0.086 nM.

molecular target: T2, Mu-type opioid receptor; experiment: Displacement of [3H]DAMGO from human mu opioid receptor expressed in CHO cells after 60 mins by scintillation counting; assay type: cell-based; settings: not given

For `COc1ccc2cc(CCNC(=O)c3ccc4c(c3)C3(C)CCN(CC5CC5)C(C4)C3C)ccc2c1` (racemic), which Ki is on record?
Its Ki is 0.064 nM.

Which Ki does the source give for `CC1C2Cc3ccc(C(=O)NCCc4ccc(-c5ccccc5O)cc4)cc3C1(C)CCN2CC1CC1` (racemic) here?
Its Ki is 0.0056 nM.

molecular target: T1, Delta-type opioid receptor; experiment: Agonist activity at human delta opioid receptor expressed in CHO cells assessed as [35S]GTPgammaS binding after 60 mins by scintillation counting; assay type: functional, cell-based; settings: not given

With `COc1ccc2cc(CCNC(=O)c3ccc4c(c3)C3(C)CCN(CC5CC5)C(C4)C3C)ccc2c1` (racemic) as the compound, how does the EC50 read?
The EC50 was 7.5 nM.

Which EC50 does the source give for `C[C@H]1[C@H]2Cc3ccc(C(=O)NCCc4ccc(-c5ccc(O)cc5)cc4)cc3[C@]1(C)CCN2CC1CC1` here?
Its EC50 is 0.31 nM.

Which EC50 does the source give for `COc1cccc(-c2ccc(CCNC(=O)c3ccc4c(c3)C3(C)CCN(CC5CC5)C(C4)C3C)cc2)c1` (racemic) here?
Its EC50 is 1.2 nM.

With `CC1C2Cc3ccc(C(=O)NCCc4ccc(-c5ccc6c(c5)OCO6)cc4)cc3C1(C)CCN2CC1CC1` (racemic) as the compound, how does the EC50 read?
The EC50 was 0.8 nM.

For `CC(C)Oc1ccc(-c2ccc(CCNC(=O)c3ccc4c(c3)C3(C)CCN(CC5CC5)C(C4)C3C)cc2)cc1` (racemic), which EC50 is on record?
Its EC50 is 18 nM.

How did the EC50 turn out when `COc1ccc(-c2ccc(CCNC(=O)c3ccc4c(c3)C3(C)CCN(CC5CC5)C(C4)C3C)cc2)cc1C` (racemic) was run?
Its EC50 is 2.8 nM.

For `CC1C2Cc3ccc(C(=O)NCCc4ccc(-c5ccccc5O)cc4)cc3C1(C)CCN2CC1CC1` (racemic), which EC50 is on record?
The EC50 was 0.16 nM.
